Here are results for twelve compounds from ChEMBL document CHEMBL1201862, “PubChem BioAssay data set” (2004).

SMILES strings stand for the structures. Calls of active or inactive are those of the source. A value given as a limit tells only on which side of the number the result lay.

Assay [1] concerns the target Voltage-dependent T-type calcium channel subunit alpha-1H (Homo sapiens, UniProt O95180). As to the kind of experiment: Cav3.2 T-type channel inhibitors, cell-based, synthetic library set 1, calcium flux (AID 493022). The format is functional. For orientation: Calcium flux is commonly read through the fluorescence of an indicator in the cells.
For the next assay, the target named is Hexokinase (Trypanosoma brucei, UniProt Q38C41). Nature of the assay: Confirmation assay for inhibitors of Trypanosoma brucei hexokinase 1-Analogue-first series. [Related pubchem assays (depositor defined):AID1430, AID1632, AID2516, AID2560, AID2579, AID2600, AID449725, AID492951]. The assay is classed as functional.
Assay [2] has as its target Potassium voltage-gated channel subfamily KQT member 2 (Rattus norvegicus, UniProt O88943). As to the kind of experiment: retigabine-insensitive KCNQ2 potentiators, concentration-response, dose response, cell-based, retigabine-insensitive compounds (AID 2654). The assay is classed as functional.
The nature of assay [3]: growth suppression of beta-catenin-knockout colon cells, dose response, cell-based, HCT116, human colon tumor (AID 1045).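 Note: HCT116 colon tumor cells with beta catenin knocked out; cells exposed to compound for 60 hours.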 The assay is classed as functional.
Assay [4] concerns the target T1, Kappa-type opioid receptor (Homo sapiens, UniProt P41145). The assay is classed as functional.
For assay [5], the target named is T1, Kappa-type opioid receptor. The format is functional. This is another data set of the same source.
Assay [6] in a line: growth suppression of PTEN-null colon cells, dose response, cell-based, HCT116 PTEN knockout (AID 1047).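 Note: HCT116 colon tumor cells with PTEN knocked out; cells exposed to compound for 60 hours before readout; potency for loss of cell viability measured by luminescence.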 The format is functional.
Assay [7] can be described thus: Fluorescence-based cell-based high throughput dose response assay for inhibitors of the interaction of nucleotide-binding oligomerization domain containing 2 (NOD2) and the receptor-interacting serine-threonine kinase 2 (RIPK2). The assay is classed as functional. The settings on record: Homo sapiens.
Assay [8] concerns the target T2, Beta-galactosidase (Escherichia coli, UniProt Q8VNN2). The assay is classed as functional.
Assay [9] concerns the target Sphingosine 1-phosphate receptor 4 (Homo sapiens, UniProt O95977). As to the kind of experiment: S1P4 receptor agonists, human, late-stage follow-up, cell-based, fluorescence, synthesized compounds (AID 463107). The assay is classed as functional.
The target of assay [10] is T2, Beta-galactosidase. Nature of the assay: beta-galactosidase enzyme inhibitors and activators, dose response, artefact control for CCR6 antagonist project, biochemical, E. coli enzyme, set 3 (AID 504712). The format is functional.
Assay [11] deals with DNA (cytosine-5)-methyltransferase 1 (Homo sapiens, UniProt P26358). As to the kind of experiment: DNMT1 methyltransferase inhibitors, confirmation, biochemical, fluorescent molecular beacon (AID 602386). The format is functional.
Assay [12] addresses T3, Probable nicotinate-nucleotide adenylyltransferase (Staphylococcus aureus (strain N315), UniProt P65502). The format is functional, Staphylococcus aureus subsp. aureus N315. Conditions: read-out: IC50_Mean.
The target of assay [13] is T3, Probable nicotinate-nucleotide adenylyltransferase. The assay is classed as functional, Staphylococcus aureus subsp. aureus N315.
Assay [14] addresses T4, Small ubiquitin-related modifier 2 (Homo sapiens, UniProt P61956). As to the kind of experiment: SUMO2–SIM peptide binding inhibitors, dose response, selectivity assay for SUMO1 interaction inhibitor project, biochemical, fluorescence polarization, uHTS hits (AID 624385). The assay is classed as functional. The settings on record: read-out: IC50_Mean. In general terms: In fluorescence polarisation assays a small probe gives low polarisation when free and higher when bound to something large.

The target of assay [15] is T5, Small ubiquitin-related modifier 1 (Homo sapiens, UniProt P63165). As to the kind of experiment: inhibitors of SUMO1 peptide binding, dose response, biochemical, fluorescence polarization, uHTS hits (AID 624382). The settings on record: read-out: IC50_Mean. The assay is classed as functional.
Assay [16] has as its target T4, Small ubiquitin-related modifier 2. As to the kind of experiment: inhibitors of SUMO2 protein-protein interaction, dose response, selectivity assay for SUMO1 interaction inhibitor project, biochemical, FRET, human SUMO2, uHTS hits (AID 624384). The assay is classed as functional. The settings on record: read-out: IC50_Mean.
The target in assay [17] is T5, Small ubiquitin-related modifier 1. As to the kind of experiment: inhibitors of SUMO1 partner interactions, dose response, biochemical, FRET (AID 624383). Conditions: read-out: IC50_Mean. The assay is classed as functional.
Assay [18] is described as follows: THP-1 cell cytotoxicity, dose response, cytotoxicity control for non-replicating M. tuberculosis project (AID 489025). The assay is classed as functional.
The next assay concerns INS1. Nature of the assay: beta cell apoptosis inhibitors, cytokine rescue, dose response, luminescence, retest (AID 449756).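 Note: cell death triggered by IL-1 beta plus TNF-alpha plus IFN-gamma mixture; protective hits raise ATP signal compared with cytokine alone wells.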 The assay is classed as functional, cell-based. Conditions: Rattus norvegicus.
Assay [19] can be described thus: Vero E6 cell cytotoxicity, dose response, cytotoxicity control for non-replicating M. tuberculosis project, secondary assay (AID 492998). The assay is classed as functional, VeroE6. The settings on record: Vero C1008.
A short description of the next assay: cells. The format is functional.
Assay [20] can be described thus: inhibitors of intracellular T. cruzi replication, confirmation, NIH3T3 host cells, beta-gal luminescence (AID 2044).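 Note: intracellular parasites grown in NIH/3T3 mouse fibroblasts as host cells; luminescent beta-galactosidase reporter signal from transgenic T. cruzi replicating inside host cells; inhibitors lower the luminescence signal.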 The format is functional, cell-based.
The nature of assay [21]: cytotoxicity toward NIH3T3 fibroblasts, dose response, counter-screen, cell-based, ATP luminescence, mouse fibroblasts (AID 2010).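 Note: cells exposed to compound for about 90 hours before reading.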 The format is functional. On the technique in general: A counterscreen serves to expose hits that act by an unwanted route or on another target.
A short description of assay [22]: HepG2 cell cytotoxicity, dose response, cytotoxicity control for non-replicating M. tuberculosis project (AID 489018). Conditions: Mycobacterium tuberculosis. The assay is classed as functional.
In assay [23] the target is T6, Mannose-6-phosphate isomerase (Homo sapiens, UniProt P34949).
T6 sequence (P34949 whole entry): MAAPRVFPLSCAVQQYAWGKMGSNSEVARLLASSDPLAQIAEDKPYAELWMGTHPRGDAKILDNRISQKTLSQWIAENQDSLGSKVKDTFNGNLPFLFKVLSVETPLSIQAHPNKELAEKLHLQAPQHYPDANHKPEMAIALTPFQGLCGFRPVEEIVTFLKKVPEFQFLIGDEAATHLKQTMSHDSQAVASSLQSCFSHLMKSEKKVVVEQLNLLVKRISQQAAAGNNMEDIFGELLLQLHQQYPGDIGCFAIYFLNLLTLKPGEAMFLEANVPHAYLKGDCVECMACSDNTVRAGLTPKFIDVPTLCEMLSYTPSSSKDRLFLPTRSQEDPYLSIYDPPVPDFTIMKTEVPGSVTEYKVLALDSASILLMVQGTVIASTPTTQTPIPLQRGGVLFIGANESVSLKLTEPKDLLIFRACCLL
Nature of the assay: PMI enzyme inhibitors, confirmation, biochemical, fluorescence intensity (AID 1535).

Assay [24] has as its target Glucose-6-phosphate 1-dehydrogenase (Homo sapiens, UniProt P11413). Nature of the assay: human G6PD enzyme inhibitors, dose response, selectivity assay for P. falciparum G6PD inhibitor project, biochemical, fluorescence (AID 504792). The assay is classed as functional.
Assay [25] deals with Phosphoethanolamine/phosphocholine phosphatase (Homo sapiens, UniProt Q8TCT1). Nature of the assay: SAR assay for compounds that inhibit PHOSPHO1. [Related pubchem assays (depositor defined):AID1545, AID1565, AID1574].
Assay [26] in a line: cytotoxicity in HPDE-C7 cells, cell-based, fluorescence, HTS (AID 430). The assay is classed as functional. Conditions: Homo sapiens.
Assay [27] can be described thus: cytotoxicity in KRAS-transformed pancreatic duct cells, primary screen, cell-based, fluorescence, HTS (AID 431). The format is functional. Conditions: Homo sapiens.
A further assay concerns the target Phosphomannomutase 2 (Homo sapiens, UniProt O15305). Nature of the assay: Counter screen SAR assay for PMM2 inhibitors via a fluorescence intensity assay. [Related pubchem assays (depositor defined):AID1545, AID1574].
The next assay deals with ORF 73 (Human herpesvirus 8, UniProt O40947). Nature of the assay: inhibitors of C-LANA binding to LBS DNA, dose response, biochemical, fluorescence polarization, cherry-picked samples (AID 504725).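 Note: fluorescence polarization of a labeled DNA duplex reporting LANA DNA binding; potency is for inhibitors that block LANA binding to the DNA.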 Also noted: species or system Human gammaherpesvirus 8.
Assay [28] deals with Complement C1s subcomponent (Homo sapiens, UniProt P09871). As to the kind of experiment: Complement C1s ELISA. [Related pubchem assays: 538, 787 ]. The assay is classed as functional.
The next assay has as its target T7, Coagulation factor XII (Homo sapiens, UniProt P00748).
T7 sequence (P00748 whole entry): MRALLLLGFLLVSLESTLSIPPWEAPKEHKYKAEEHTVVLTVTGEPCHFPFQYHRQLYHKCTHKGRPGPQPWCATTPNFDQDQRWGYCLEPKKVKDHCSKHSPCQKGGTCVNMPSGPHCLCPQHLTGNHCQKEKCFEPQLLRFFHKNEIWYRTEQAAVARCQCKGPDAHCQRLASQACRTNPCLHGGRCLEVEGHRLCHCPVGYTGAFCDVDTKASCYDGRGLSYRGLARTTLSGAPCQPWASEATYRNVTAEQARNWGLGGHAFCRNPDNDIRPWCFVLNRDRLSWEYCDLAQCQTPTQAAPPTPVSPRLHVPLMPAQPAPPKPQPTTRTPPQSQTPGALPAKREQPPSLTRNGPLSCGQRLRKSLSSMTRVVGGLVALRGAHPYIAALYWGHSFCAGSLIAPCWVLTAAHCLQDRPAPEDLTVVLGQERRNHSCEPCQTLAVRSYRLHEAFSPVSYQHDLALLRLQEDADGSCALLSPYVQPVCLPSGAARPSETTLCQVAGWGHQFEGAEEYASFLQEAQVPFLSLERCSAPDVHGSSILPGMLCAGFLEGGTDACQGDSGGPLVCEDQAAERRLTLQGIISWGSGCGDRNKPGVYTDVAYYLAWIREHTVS
Nature of the assay: FXIIa inhibitor potency, concentration-response, biochemical (AID 716). The assay is classed as functional.

For assay [29], the target named is Glutathione S-transferase omega-1 (Homo sapiens, UniProt P78417). As to the kind of experiment: GSTO1 inhibitor potency, recombinant enzyme, late-stage follow-up, biochemical, SE-Rh probe, in-gel fluorescence, powder samples, set 2 (AID 463142). The assay is classed as functional.
Assay [30] has as its target DNA dC->dU-editing enzyme APOBEC-3A (Homo sapiens, UniProt P31941). Nature of the assay: APOBEC3A DNA deaminase inhibitors, dose response, biochemical (AID 504722). The format is functional.
The target in assay [31] is DNA dC->dU-editing enzyme APOBEC-3G (Homo sapiens, UniProt Q9HC16). As to the kind of experiment: Dose Response confirmation of small molecule APOBEC3G DNA Deaminase Inhibitors via a fluorescence-based single-stranded DNA deaminase assay. [Related pubchem assays (depositor defined):AID493012, AID493028]. The assay is classed as functional.
DNA dC->dU-editing enzyme APOBEC-3G, sequence (Q9HC16 whole entry): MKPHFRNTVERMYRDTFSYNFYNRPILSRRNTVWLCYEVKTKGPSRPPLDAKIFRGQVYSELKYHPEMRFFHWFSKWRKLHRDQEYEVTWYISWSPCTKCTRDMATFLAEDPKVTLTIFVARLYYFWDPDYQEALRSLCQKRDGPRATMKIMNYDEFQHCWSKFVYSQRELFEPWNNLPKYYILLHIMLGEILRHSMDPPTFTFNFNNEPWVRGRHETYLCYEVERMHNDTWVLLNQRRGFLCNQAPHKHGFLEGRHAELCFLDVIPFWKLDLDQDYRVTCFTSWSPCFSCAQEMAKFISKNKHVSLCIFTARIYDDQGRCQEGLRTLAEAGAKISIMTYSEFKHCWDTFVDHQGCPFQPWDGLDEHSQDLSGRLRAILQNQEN

T4 sequence (P61956 whole entry): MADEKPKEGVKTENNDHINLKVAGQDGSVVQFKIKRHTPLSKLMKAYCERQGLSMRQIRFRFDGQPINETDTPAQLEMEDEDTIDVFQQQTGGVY
T2 sequence (Q8VNN2 whole entry): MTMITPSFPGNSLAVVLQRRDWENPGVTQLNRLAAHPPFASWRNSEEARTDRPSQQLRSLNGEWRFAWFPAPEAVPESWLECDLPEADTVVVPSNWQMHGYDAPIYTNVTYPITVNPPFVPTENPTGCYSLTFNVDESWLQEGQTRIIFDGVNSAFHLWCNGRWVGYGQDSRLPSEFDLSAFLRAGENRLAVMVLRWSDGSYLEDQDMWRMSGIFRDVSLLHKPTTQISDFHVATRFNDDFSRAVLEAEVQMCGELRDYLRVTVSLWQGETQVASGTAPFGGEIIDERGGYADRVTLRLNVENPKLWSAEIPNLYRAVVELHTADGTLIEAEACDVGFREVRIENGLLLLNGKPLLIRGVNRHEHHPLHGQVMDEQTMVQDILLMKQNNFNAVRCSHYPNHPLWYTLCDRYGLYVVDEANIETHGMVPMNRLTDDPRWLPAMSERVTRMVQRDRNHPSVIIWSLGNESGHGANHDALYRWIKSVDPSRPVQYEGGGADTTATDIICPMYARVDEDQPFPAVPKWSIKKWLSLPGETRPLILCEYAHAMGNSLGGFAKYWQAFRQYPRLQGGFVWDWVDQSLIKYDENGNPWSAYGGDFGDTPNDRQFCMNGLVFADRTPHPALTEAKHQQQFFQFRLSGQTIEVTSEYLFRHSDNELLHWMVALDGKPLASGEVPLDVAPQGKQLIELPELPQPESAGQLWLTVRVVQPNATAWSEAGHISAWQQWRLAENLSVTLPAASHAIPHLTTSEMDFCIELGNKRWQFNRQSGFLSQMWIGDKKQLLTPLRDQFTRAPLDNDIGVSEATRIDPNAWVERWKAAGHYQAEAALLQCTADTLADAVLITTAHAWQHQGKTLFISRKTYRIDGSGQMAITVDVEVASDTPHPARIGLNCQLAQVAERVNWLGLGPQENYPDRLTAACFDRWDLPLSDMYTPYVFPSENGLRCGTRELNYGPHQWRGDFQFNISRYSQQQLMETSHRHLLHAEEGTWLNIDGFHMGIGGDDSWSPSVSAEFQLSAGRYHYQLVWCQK
T1 sequence (P41145 whole entry): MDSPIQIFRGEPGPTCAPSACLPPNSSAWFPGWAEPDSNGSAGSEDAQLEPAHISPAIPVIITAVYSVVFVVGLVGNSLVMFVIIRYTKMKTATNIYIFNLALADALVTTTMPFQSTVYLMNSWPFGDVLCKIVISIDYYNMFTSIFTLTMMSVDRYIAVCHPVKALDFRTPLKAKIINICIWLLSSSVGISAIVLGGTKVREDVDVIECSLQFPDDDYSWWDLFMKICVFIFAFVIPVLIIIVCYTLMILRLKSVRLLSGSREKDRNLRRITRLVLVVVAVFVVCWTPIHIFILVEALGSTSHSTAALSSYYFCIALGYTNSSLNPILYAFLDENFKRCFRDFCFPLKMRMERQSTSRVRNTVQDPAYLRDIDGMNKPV
T3 sequence (P65502 whole entry): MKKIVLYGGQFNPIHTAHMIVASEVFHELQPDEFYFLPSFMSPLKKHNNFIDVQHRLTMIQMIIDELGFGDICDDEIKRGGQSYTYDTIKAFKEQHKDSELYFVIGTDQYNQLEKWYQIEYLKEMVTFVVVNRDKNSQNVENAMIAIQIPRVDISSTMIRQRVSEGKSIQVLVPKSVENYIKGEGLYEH
T5 sequence (P63165 whole entry): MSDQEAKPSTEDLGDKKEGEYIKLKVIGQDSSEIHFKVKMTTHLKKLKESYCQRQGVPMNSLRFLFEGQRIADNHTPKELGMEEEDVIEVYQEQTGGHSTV
Complement C1s subcomponent, sequence (P09871 16-437 limits assumed): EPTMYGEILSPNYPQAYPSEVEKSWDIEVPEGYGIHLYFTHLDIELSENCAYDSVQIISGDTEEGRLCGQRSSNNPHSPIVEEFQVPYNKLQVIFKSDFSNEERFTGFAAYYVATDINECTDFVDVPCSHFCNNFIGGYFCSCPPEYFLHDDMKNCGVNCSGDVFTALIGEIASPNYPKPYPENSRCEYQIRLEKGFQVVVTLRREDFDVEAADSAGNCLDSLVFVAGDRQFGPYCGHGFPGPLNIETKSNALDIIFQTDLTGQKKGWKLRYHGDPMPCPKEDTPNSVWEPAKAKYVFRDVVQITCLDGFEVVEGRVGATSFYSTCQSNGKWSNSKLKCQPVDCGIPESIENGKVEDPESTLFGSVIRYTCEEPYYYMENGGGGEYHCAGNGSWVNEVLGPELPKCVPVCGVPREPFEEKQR
Complement C1s subcomponent, sequence (P09871 438-688 limits assumed): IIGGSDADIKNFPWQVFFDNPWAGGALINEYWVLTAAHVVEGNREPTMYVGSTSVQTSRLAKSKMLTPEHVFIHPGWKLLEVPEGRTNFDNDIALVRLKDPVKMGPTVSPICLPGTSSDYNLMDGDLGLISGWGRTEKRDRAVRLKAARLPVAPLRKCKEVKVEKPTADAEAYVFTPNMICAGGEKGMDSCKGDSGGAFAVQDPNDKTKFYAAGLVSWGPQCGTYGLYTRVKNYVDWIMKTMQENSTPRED
Glutathione S-transferase omega-1, sequence (P78417 whole entry): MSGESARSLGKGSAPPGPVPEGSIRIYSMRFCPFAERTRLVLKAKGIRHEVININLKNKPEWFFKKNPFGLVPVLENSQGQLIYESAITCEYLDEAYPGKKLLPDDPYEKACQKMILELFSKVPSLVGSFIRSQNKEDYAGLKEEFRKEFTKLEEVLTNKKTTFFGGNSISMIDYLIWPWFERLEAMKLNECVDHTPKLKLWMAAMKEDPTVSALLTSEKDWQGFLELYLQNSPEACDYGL
Phosphomannomutase 2, sequence (O15305 whole entry): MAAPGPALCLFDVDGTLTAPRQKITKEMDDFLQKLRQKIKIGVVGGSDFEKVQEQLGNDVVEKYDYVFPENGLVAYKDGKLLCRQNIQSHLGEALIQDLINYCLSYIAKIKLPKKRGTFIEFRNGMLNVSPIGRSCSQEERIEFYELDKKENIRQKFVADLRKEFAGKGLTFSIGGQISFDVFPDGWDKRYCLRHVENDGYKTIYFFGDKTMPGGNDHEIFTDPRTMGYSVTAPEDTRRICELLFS
Hexokinase, sequence (Q38C41 whole entry): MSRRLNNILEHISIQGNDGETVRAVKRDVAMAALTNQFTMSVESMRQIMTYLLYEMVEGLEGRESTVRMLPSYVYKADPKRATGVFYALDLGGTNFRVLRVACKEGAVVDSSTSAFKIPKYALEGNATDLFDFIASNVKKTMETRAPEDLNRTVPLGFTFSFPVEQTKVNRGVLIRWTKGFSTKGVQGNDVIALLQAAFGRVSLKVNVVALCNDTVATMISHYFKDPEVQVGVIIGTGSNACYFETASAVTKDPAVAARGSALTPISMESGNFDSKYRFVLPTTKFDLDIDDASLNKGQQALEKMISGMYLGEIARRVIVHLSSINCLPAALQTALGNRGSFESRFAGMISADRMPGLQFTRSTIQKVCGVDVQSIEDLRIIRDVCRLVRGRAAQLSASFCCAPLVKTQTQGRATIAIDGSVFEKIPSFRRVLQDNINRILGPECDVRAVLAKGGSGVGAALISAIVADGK
Phosphoethanolamine/phosphocholine phosphatase, sequence (Q8TCT1 whole entry): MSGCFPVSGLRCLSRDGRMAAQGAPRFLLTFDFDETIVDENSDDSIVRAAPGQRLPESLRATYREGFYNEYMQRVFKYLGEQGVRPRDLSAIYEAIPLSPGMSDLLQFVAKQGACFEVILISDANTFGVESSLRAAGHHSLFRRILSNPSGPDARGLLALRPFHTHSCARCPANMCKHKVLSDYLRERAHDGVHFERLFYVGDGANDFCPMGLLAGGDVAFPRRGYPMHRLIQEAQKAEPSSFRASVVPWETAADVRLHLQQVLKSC
Glucose-6-phosphate 1-dehydrogenase, sequence (P11413 whole entry): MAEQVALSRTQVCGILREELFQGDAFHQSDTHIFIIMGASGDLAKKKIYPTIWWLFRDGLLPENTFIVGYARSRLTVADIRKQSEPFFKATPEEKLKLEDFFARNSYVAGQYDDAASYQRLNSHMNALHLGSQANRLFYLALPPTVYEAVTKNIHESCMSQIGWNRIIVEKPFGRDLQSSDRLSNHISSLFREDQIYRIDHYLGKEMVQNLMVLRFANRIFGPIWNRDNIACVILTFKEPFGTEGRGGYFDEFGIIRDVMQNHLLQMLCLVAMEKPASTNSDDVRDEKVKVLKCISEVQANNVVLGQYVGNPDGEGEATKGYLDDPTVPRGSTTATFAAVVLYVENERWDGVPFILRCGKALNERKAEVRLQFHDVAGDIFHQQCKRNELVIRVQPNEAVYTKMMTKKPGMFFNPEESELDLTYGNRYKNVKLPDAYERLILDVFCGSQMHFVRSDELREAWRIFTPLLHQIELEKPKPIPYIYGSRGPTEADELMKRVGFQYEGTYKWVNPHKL
DNA dC->dU-editing enzyme APOBEC-3A, sequence (P31941 whole entry): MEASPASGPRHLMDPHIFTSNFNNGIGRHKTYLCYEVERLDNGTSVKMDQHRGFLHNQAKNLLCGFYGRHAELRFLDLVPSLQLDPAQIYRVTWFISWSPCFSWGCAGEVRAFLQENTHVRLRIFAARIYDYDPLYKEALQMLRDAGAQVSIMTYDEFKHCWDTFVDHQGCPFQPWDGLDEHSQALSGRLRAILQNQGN

As usually defined, the EC50 is the concentration needed to bring the measured effect to its halfway point. As to `O=C(COc1ccc(Cl)cc1)Nc1nnc(-c2ccc(F)cc2)o1`, the EC50 in assay [1] is 1.8 µM (active).
On to `COC(=O)c1cc(Cl)ccc1NC(=O)c1ccc(OC)cc1`, for which the IC50 at Hexokinase is > 25 µM (inactive).
For the compound `CCOc1ccc(NC(=O)Nc2cccnc2)cc1`, in assay [2], the concentration for a half-maximal effect (EC50) was 14.3 µM (active).
`N#CC(C#N)=C1C=CC=CN1/C(=C\c1ccco1)C(=O)c1ccc(-c2ccccc2)cc1`: the EC50 in assay [3] was 4.81 µM (active); in assay [6], 4.69 µM (active); at Beta-galactosidase [8], > 31.5 µM (inactive). Besides, the IC50 in [4] is more than 32 µM; in assay [5] it was 16.1 µM (active); in assay [7] it was 945 nM (active).
As for `COC(=O)c1ncccc1OCCOc1ccc(Cl)cc1Cl`, the EC50 in [9] was > 50 µM (inactive).
On to `CCOc1ccc(C=NNc2ccc(S(=O)(=O)Nc3ccccc3C(=O)O)cc2[N+](=O)[O-])cc1`, for which the IC50 is > 66.6 µM (inactive) on Beta-galactosidase [10]; 5.78 µM (active) in assay [11]; 15.6 µM (active) in assay [12]; 7.56 µM (active) in assay [13]; 3.67 µM (active) in [14]; 4.41 µM (active) in assay [15]. In addition, the IC50 is > 66 µM (inactive) in [16] and 51.3 µM (inactive) in assay [17].
As usually defined, the CC50 is the concentration at which the toxic effect on the cells reaches its halfway point. The term AC50 denotes the midpoint of the concentration-response curve, whichever way the signal moves. With `Cc1cc(NC2CCCCC2)nc(NCc2ccccc2)n1`, the half-maximal cytotoxic concentration (CC50) is 12.9 µM (active) in assay [18], > 20 µM (active) in assay [19] and 16.1 µM (active) in [22]. The half-maximal activity concentration (AC50) in the assay on INS1 is 2.83 µM (active). The IC50 in “cells” was 10.7 µM (active). The EC50 was 1.61 µM (active) in assay [20] and 8.62 µM (active) in assay [21].
As for `O=c1c2ccccc2sn1-c1ccc(S(=O)(=O)N2CCCC2)cc1`, the IC50 in assay [23] was > 50 µM (inactive); in assay [24], 30.7 µM (inactive); in assay [25] it was 489 nM (active); on Phosphomannomutase 2 it was > 100 µM (inactive). In addition, the EC50 was > 20 µM (not active) in [26], > 20 µM (not active) in assay [27], 1.29 µM (active) in assay [20] and > 30 µM (not active) in assay [21].
On to `O=C(COc1ccccc1Cc1ccccc1)NCCCN1CCOCC1`, for which the AC50 at ORF 73 is 183 µM (active).
As for `O=C(c1csc2c1CCCC2)n1cccn1`, the IC50 in assay [28] was > 50 µM (not active); at Coagulation factor XII, 5.39 µM (active).
For the compound `C#CCN(CCCN(C(=O)CCl)c1ccc([N+](=O)[O-])cc1)C(=O)C(F)(F)F`, the IC50 in [29] was 23 nM (active).
Take `CC(/C=N/n1c(S)nnc1-c1ccco1)=C\c1ccco1`: the IC50 was > 100 µM (inactive) in assay [30] and 2.62 µM (active) in assay [31].
